How the values were obtained:
CNV lesions = assay: Laser-induced choroidal neovascularization (L-CNV) model; assay type: in vivo, C57BL/6J mice; settings: for reduction in CNV lesion volume (Z-stack images of agglutinin-stained choroidal flatmounts): day 14, vs vehicle control; for reduction of CNV lesion volume: day 14, vs control eyes, P<0.01
Description: (§1) All mouse experiments followed the guidelines of the Association for Research in Vision and Ophthalmology Statement for the Use of Animals in Ophthalmic and Visual Research and were approved by the Indiana University School of Medicine Institutional Animal Care and Use Committee. Wild-type female C57BL/6J mice, 6-8 weeks of age, were purchased from the Jackson Laboratory (Bar Harbor, Me.). Intraperitoneal injections of 17.5 mg/kg ketamine hydrochloride and 2.5 mg/kg xylazine mixture were used for anesthesia.
(§2) Injections were given under anesthesia in a 0.5 μL volume using a 33-gauge needle. The needle was kept in place for 1 minute to prevent the reflux of solution when the needle was removed. SH-11037 was dissolved in DMSO then diluted in PBS to a final concentration of 0.5% DMSO. Eyes were numbed with tetracaine solution before the injection, and triple antibiotic ointment was used immediately after the injection to prevent infection. A masked researcher undertook imaging and analysis to avoid bias.
Laser photocoagulation was performed as described in Sulaiman et al., J Ocul Pharmacol Ther, 2015 and Poor et al., Invest Opthalmol Vis Sci, 2014 55(10): 6525-34. Briefly, eyes were dilated using 1% tropicamide, then underwent laser treatment using 50 μm spot size, 50 ms duration, and 250 mW pulses of an ophthalmic argon green laser, wavelength 532 nm, coupled to a slit lamp. A coverslip was used to allow viewing of the posterior pole of the eye. Each eye received 3 laser burns centered around the optic nerve at 12, 3, and 9 o'clock positions. The appearance of a bubble at the site of laser application was used to identify laser-induced damage of Bruch's membrane. Lesions in which bubbles were not observed were excluded from analysis. The effect of SH-11037 on the L-CNV model using final estimated vitreal concentrations of 0.1, 0.3, 1, or 10 μM SH-11037 was tested. Anti-mouse VEGF164 neutralizing antibody (R&D Systems, Minneapolis, Minn.) was tested at 0.2, 1, and 5 ng/eye. Vehicle (PBS+0.5% DMSO) was used as a negative control. All injections were given a single time, immediately after laser treatment. In testing the effects of SH-11037 on existing L-CNV lesions, vehicle, anti-VEGF164, and SH-11037 (10 μM) injections were given a single time, 5 days post laser.
Optical coherence tomography (OCT) was performed at the indicated times using the Micron III intraocular imaging system (Phoenix Research Labs, Pleasanton, Calif.). Before the procedure, eyes were dilated with 1% tropicamide solution (Alcon, Fort Worth, Tex.) and lubricated with hypromellose ophthalmic demulcent solution (Gonak) (Akorn, Lake Forest, Ill.). Mice were then placed on a custom heated stage that moves freely to position the mouse eye for imaging. Several horizontal and vertical images were taken per lesion to allow calculation of CNV lesion volume. Three-dimensional quantification of CNV lesion volumes was performed using an ellipsoid quantification method as described in Sulaiman et al., J Ocul Pharmacol Ther, 2015, 31(8):447-54. FA was performed 14 days post laser by intraperitoneal injections of 50 μL of 25% fluorescein sodium (Fisher Scientific, Pittsburgh, Pa.). Fundus images were taken using the Micron III system and Streampix software.
Choroidal flatmount preparation, staining, and imaging were done as described in Sulaiman et al., J Ocul Pharmacol Ther, 2015, 31(8):447-54. ImageJ software was used to analyze Z-stack images; the summation of the whole stained area in each section, multiplied by the distance between sections (3 μm) was used as an index for the CNV lesion volume. The volumes of the 3 lesions in each eye were averaged and considered as an n=1 for statistical analysis.

[1] = test system: pre-existing retinal vasculature; assay: Staining of pre-existing retinal vasculature (isolectin B4 retina flatmounts); assay type: in vivo, C57BL/6J mice; settings: 14 days after 100 μM intravitreal injection, vs vehicle control
mouse choroidal tissues = assay: Choroidal sprouting assay (ex vivo); assay type: cell-based, C57Bl/6J mice
Description: Sprouting of choroidal layers was tested as previously described in Shao et a., PLoS One, 2013 8(7): e69552. Briefly, 6-8 week old C57Bl/6J mice eyes were enucleated immediately after euthanasia. Peripheral parts of the choroid/sclera layer were separated and cut into pieces. Choroid fragments were then placed on growth factor-reduced Matrigel™ (30 μL/well; BD Biosciences, San Jose, Calif.) in 24-well plates. The plates were then incubated at 37° C. for about 10 minutes to allow the Matrigel to solidify. Endothelial Growth Medium (EGM-2) was prepared by mixing the contents of an EGM-2 “Bullet Kit” (Cat no. CC-4176) with Endothelial Basal Medium (EBM) (Lonza, Walkersville, Md.). Penicillin-streptomycin and 2.5 mg/mL Plasmocin were added to the final medium and used for this assay. Medium (500 μL) was added to each well of the plate and incubated at 37° C. with 5% CO2 for 72 hours before any treatments were added. Medium was changed after 48 hours. SH-11037 was synthesized as taught in WO2014/182695 (incorporated by reference to the extent it is consistent herewith) and dissolved in DMSO and then tested at 0.03, 0.3, and 1 μM concentrations for 48 hours. The final concentration of DMSO in each well was 0.2%. Trypan blue 0.4% solution (Fisher Scientific, Pittsburgh, Pa., USA) was used to assess cell viability. Images were taken using an EVOS-fl digital microscope (AMG, Mill Creek, Wash., USA) and data were analyzed as the sprouting distance in four different directions using ImageJ software v. 1.48V.

neural retina function = assay: Retinal electrophysiology (ERG) after intravitreal injection; assay type: in vivo, C57BL/6J mice; settings: 14 days after 100 μM SH-11037 injections, relative to control eyes
Description: as §1
Injections were given under anesthesia in a 0.5 μL volume using a 33-gauge needle. The needle was kept in place for 1 minute to prevent the reflux of solution when the needle was removed. […]
Electroretinograms (ERG) were obtained from animals 14 days post intravitreal injection of 100 μM SH-11037, 0.2 ng mouse anti-VEGF neutralizing antibody (R&D Systems, Minneapolis, Minn., USA)+0.3 μM SH-11037, or vehicle control and performed as described in Cai et al., EMBO Mol Med, 2012 4(9):980-91. Briefly, scotopic rod recordings were performed on overnight dark-adapted mice, with 10 increasing light intensities of white light and responses were recorded with a visual electrodiagnostic system (UTAS-E 2000; LKC Technologies, Gaithersburg, Md.). […] Ten responses were recorded and averaged at each light intensity. […]

retina [2] = assay: In vivo toxicity of intravitreally injected SH-11037 (histology, immunofluorescence); design: species or system C57BL/6J mice
Description: as §1, §2
Toxicity of intravitreally injected SH-11037 was initially assessed by histology and immunofluorescence. The presence of acute ocular toxicity was investigated by injecting SH-11037 at different concentrations (0.1, 1, 10, and 100 μM), while long-term effects were tested by injecting 10 μM SH-11037. Mice were sacrificed 3 and 14 days post injections, respectively. Eyes were enucleated and fixed in 4% PFA overnight, and then the eyes were paraffin embedded and sectioned at 5 μm thickness by the Indiana University School of Medicine Histology Core. Mayer's hematoxylin and eosin (H&E) staining was performed, and retinal morphology was quantified by calculating the ratio of A (the distance from the ganglion cell layer to the outer edge of the inner nuclear layer) to B (the distance from the ganglion cell layer to the outer edge of the outer nuclear layer).
For immunofluorescence, sections were deparaffinised with xylenes and ethanol series and boiled in citrate buffer for 5 minutes. […]

[3] = test system: human retinal endothelial cells (HRECs); settings: cited from earlier work
[4] = test system: retinal neovascularization; settings: in vivo; cited from earlier work
retina [5] = settings: 10 μM into the vitreous of normal adult mice; cited from earlier work
[6] = test system: new vessel growth induced by bFGF; settings: chick chorioallantoic membrane; cited from earlier work
[7] = test system: choroidal neovascularization; settings: mouse, in vivo; cited from earlier work

## COc1ccc(CC2COc3cc(OC)c(OC)c(OC)c3C2=O)cc1OC(=O)[C@H](Cc1ccccc1)NC(=O)OC(C)(C)C (some centres unmarked) [SH-11037]
CNV lesions; 0.1 μM intravitreal
  reduction in CNV lesion volume (Z-stack images of agglutinin-stained choroidal flatmounts): no reduction
CNV lesions; 0.3 μM intravitreal
  reduction in CNV lesion volume (Z-stack images of agglutinin-stained choroidal flatmounts): no reduction
CNV lesions; 1 μM intravitreal
  reduction of CNV lesion volume: about 42%
CNV lesions; 10 μM intravitreal single injection 5 days post laser, quantified 14 days post laser
  vascular volumes of pre-existing CNV lesions relative to vehicle: significantly suppressed
CNV lesions; 10 μM intravitreal
  reduction of CNV lesion volume: ~55%
CNV lesions; 14 days post laser, relative to vehicle treatment
  leakiness of CNV lesions by fluorescein angiography: reduced leakiness
CNV lesions; injection 5 days post laser (10 μM SH-11037; 5 ng anti-VEGF164)
  CNV vascular volumes at day 14 versus 5 days control: no significant difference
CNV lesions; intravitreal 0.1, 0.3, 1, 10 μM immediately after laser, 7 days post-laser, vs vehicle, dose-dependent
  CNV lesion volumes by OCT, ellipsoid volume quantification: significantly lower
[1]
  changes in pre-existing retinal vessels: No changes
Mouse choroidal tissues; 0.03, 0.3, 1 μM, 48 hours, concentration-dependent, vs vehicle treated controls
  ability of choroidal tissues to form sprouts (sprouting distance): significantly inhibited
Mouse choroidal tissues; 48 hours, 1 μM SH-11037 vs DMSO controls
  cell viability of choroidal sprouts by Trypan blue staining: absence of significant cell death
Mouse choroidal tissues; ex vivo choroid microvascular tissue
  potent inhibitory concentration in choroidal sprouting: 0.03 µM
Neural retina function
  ERG scotopic a- and b-waves, and photopic b-waves: not significantly different
Retina [2]; intravitreal SH-11037, 3 and 14 days post injections, vs vehicle-treated and uninjected eyes
  retinal thickness (A/B ratio) morphological changes: absence of morphological changes
Retina [2]; intravitreal SH-11037, 3 and 14 days, vs vehicle-treated controls
  GFAP, cleaved caspase 3, TUNEL staining and MCP1 (retinal injury, apoptosis, inflammation): Neither shorter-nor longer-term SH-11037 treated retina showed any significant increases
Retina [2]; intravitreal SH-11037 up to 100 μM final concentration, 3 and 14 days post injection, vs vehicle and no injection control eyes
  histological changes in H&E stained retinal sections: no histological changes
[3]
  induction of apoptosis in HRECs: without inducing apoptosis
[3]; concentration-dependent
  HREC migration: inhibited
  HREC proliferation: inhibited
  HREC tube formation: inhibited
[4]
  pathogenic retinal neovascularization in OIR model: significantly suppressed

## COc1ccc(CC2COc3cc(O)c(OC)c(O)c3C2=O)cc1O (centres unmarked) [cremastranone, 5,7-dihydroxy-3-(3-hydroxy-4-methoxybenzyl)-6-methoxychroman-4-one]
Retina [5]
  apoptosis of retinal cells: nor did it induce apoptosis
  cytotoxic or inflammatory effects on the retina: no cytotoxic or inflammatory effects
[6]
  blocking new vessel growth induced by bFGF: as effective as retinoic acid
[7]
  pathogenic neovascularization in laser photocoagulation CNV model: showed efficacy
[4]
  pathogenic retinal neovascularization in OIR model: showed efficacy

From patent US11707445B2, “Composition for blocking angiogenesis” (Indiana University Research and Technology Corporation, priority 2015, dated 2023)
